In patent EP0330353A1, “Tetrazole excitatory amino acid receptor antagonists” (ELI LILLY AND COMPANY, priority 1988, dated 1989):
Like-named read-outs stand apart in the source and are kept apart here.

Tests used:
NMDA = experiment: In vivo NMDA-induced lethality in mice; set-up: species or system Male Charles River CF1 mice; conditions: for minimal effective dose: Mus musculus, 20 min, read-out: MED
Method: A typical receptor substance is characterized by N-methyl-D-aspartic acid (NMDA).
Male Charles River CF1 mice held in the laboratory for a minimum of three days were housed, 12 per cage, on sawdust bedding in clear plastic boxes with wire mesh lids. Animals were allowed full access to feed and water prior to testing.
Unless otherwise specified, all test compounds were formulated in dimethylsulfoxide (DMSO) and diluted to a 5% DMSO/sterile water solution by volume. Dosing began at 160 mg/kg. If any significant activity was detected, the test drug dose was divided in half until no more activity was detected. All test compounds were administered using the intraperitoneal injection (i.p.) route at a volume of 0.01 cc/gm.
Five mice were taken from the plastic cages, dosed with the test compound and placed individually in clear plastic observation cages. After a 30 minute drug absorption period, the mice were injected intra-peritoneally with 200 mg/kg of NMDA. This dose of NMDA produces death in more than 95% of control-treated animals. Twenty minutes after the NMDA injection the animals were scored as dead or alive. Data are reported as the minimum effective dose (MED) to block NMDA-induced lethality. Protection from lethality is met by the survival of at least three of the five animals. Data for AP5 and AP7, known excitatory amino acid antagonists, are provided for comparison.

NMDA receptors = experiment: NMDA-induced seizures in neonatal rats; assay type: in vivo, neonatal (7 to 8 days old) Sprague-Dawley rats; conditions: lowest dose preventing NMDA-induced seizures in at least 3 of 5 neonatal rats; test drug i.p. in saline 30 min before NMDA 20 mg/kg i.p.; observed 30 min
Method: In another experiment, male or female neonatal (7 to 8 days old) Sprague-Dawley rats were removed from the dam and placed in plastic observation chambers that were maintained at 30-32°C. All test drugs were dissolved in normal saline. Activation of NMDA receptors in these rats leads to a readily observable generalized motor seizure in over 95% of the animals.
Animals were injected by the intraperitoneal route with the test drug (1 ml/100 g of body weight) and observed for a 30 minute period for seizure (potential agonist) activity. They were then injected with NMDA at a dose of 20 mg/kg body weight i.p. to test for antagonist activity. […] Generally, five animals were used at each dose of compound. […] The minimum effective dose was the lowest test dose which prevented NMDA-induced seizures in at least three out of five animals.

[1] = minimum effective dose to block NMDA-induced lethality (survival of at least 3 of 5 mice), test compound i.p. 30 min before 200 mg/kg NMDA i.p., scored 20 min after NMDA

Compound | minimal effective dose (NMDA; [1]) [mg/kg] | also measured
cis-(±)-4-[(1(2)-Methyl-1(2)H-tetrazol-5-yl)methyl]-2-piperidinecarboxylic acid [Example 7] | – | MED (NMDA; [1]): 160 mg/kg
CCOC(=O)C1CC(Cc2nn[nH]n2)CCN1 (racemic) [Example 6, Ethyl cis-(±)-4-[(1(2)H-tetrazol-5-yl)methyl]-2-piperidinecarboxylate] | – | MED (NMDA receptors): 200 mg/kg
NC(CCCP(=O)(O)O)C(=O)O (stereo not drawn) [AP5, reference compound] | 80 | –
CCCCOC(=O)[C@H]1C[C@@H](Cc2nn[nH]n2)CCN1 (racemic) [Example 5, Butyl cis-(±)-4-[(1(2)H-tetrazol-5-yl)methyl]-2-piperidinecarboxylate] | 160 | –
NC(CCCCCP(=O)(O)O)C(=O)O (stereo not drawn) [AP7, reference compound] | – | minimal effective dose (NMDA): 160 mg/kg
O=C(O)[C@H]1C[C@@H](CCCc2nn[nH]n2)CCN1 (racemic) [Example 2, cis-(±)-4-[3-(1(2)H-Tetrazol-5-yl)propyl]-2-piperidinecarboxylic acid] | 10 | –
O=C(O)C1C/C(=C\c2nn[nH]n2)CCN1 (racemic) [Example 4, Z-(±)-4-[(1(2)H-Tetrazol-5-yl)methylidene]-2-piperidinecarboxylic acid] | 20 | –
O=C(O)[C@H]1C[C@@H](CCc2nn[nH]n2)CCN1 (racemic) [Example 1, cis-(±)-4-[2-(1(2)H-Tetrazol-5-yl)ethyl]-2-piperidinecarboxylic acid] | 20 | –
O=C(O)[C@H]1C[C@@H](Cc2nn[nH]n2)CCN1 (racemic) [Example 3, cis-(±)-4-[(1(2)H-Tetrazol-5-yl)methyl]-2-piperidinecarboxylic acid] | 10 | –
